Data from patent US11464802B2, “3-substituted piperidine compounds for Cbl-b inhibition, and use thereof” (Nurix Therapeutics, Inc., priority 2019, dated 2022).

Legend:
[1] = test system: primary human total T-cells; test: Primary human total T-cell activation: IL-2 secretion, Biological Example 13; assay type: cell-based; settings: 48 hours, fold change over baseline; for fold induction at 0.3 µM: inhibitor 0.3 μM; for fold induction at 0.3 µM / fold induction at 3 µM: Table 13-1; for fold induction at 1 µM: inhibitor 1 μM; for fold induction at 3 µM: inhibitor 3 μM
[2] = test system: primary human total T-cells; test: Primary human total T-cell activation: IL-2 secretion, Biological Example 9; assay type: cell-based; settings: 48 hours, fold change over baseline; for fold induction at 0.3 µM: inhibitor 0.3 μM; for fold induction at 0.3 µM / fold induction at 3 µM: Table 9-1; for fold induction at 1 µM: inhibitor 1 μM; for fold induction at 3 µM: inhibitor 3 μM
Cbl-b [3] = target: T1, Cbl-b (Homo sapiens (Human), UniProt Q13191); test: Cbl-b displacement assay (Cbl-b inhibition assay), Biological Example 12; assay type: binding; settings: 0.5 nM Cbl-b final concentration (High); Table 12-1; read-out: Cbl-b IC50 (High)
Protocol: (§1) Candidate compounds were evaluated for their ability to bind and inhibit Cbl-b, an E3 ubiquitin-protein ligase, as evidenced by their ability to displace a fluorophore-labeled probe bound to Cbl-b.
(§2) The ability of candidate compounds to displace a known inhibitor and thereby inhibit Cbl-b activity was measured by monitoring the interaction of Cbl-b with a fluorophore-labeled probe in the presence of the candidate compound. A truncated variant of Cbl-b (UniProt number Q13191) containing residues 36-427 and an Avitag at its N-terminus was co-expressed with BirA biotin ligase and purified using a standard protocol (see Dou et al., Nature Structural and Molecular Biology 8: 982-987, 2013; Avidity LLC).
(§3) Fluorescently-labeled inhibitor probe was synthesized and tagged with BODIPY FL. Cbl-b displacement assays were performed in a 384-well plate at room temperature in a 10 μl reaction volume by pre-incubating 0.5 nM Cbl-b or 0.125 nM Cbl-b (final concentration, indicated as “High” and “Low”, respectively) in an assay buffer containing 20 mM HEPES pH 7.5, 150 mM NaCl, 0.01% Triton X-100, 0.01% BSA and 0.5 mM TCEP in the presence of a candidate compound in 1% DMSO (final concentration) for 1 hour. After incubation in the presence of the candidate compound, the plate was incubated for an additional 1 hour in the presence of an approximate EC40 binding saturation consisting of 150 nM fluorescently-labeled inhibitor probe and 2 nM Streptavidin-Terbium (Cisbio) (final concentrations). Following the 1 hour incubation, the plates were read for TR-FRET signal at 520/620 nM using an Envision plate reader (Perkin Elmer).
(§4) The resulting data for the Cbl-b activity assays were analyzed using standard methods to determine the IC50 values for the tested compounds.

[4] = test system: primary human total T-cells; test: Primary human total T-cell activation: IL-2 secretion, Biological Example 2; assay type: cell-based; settings: 48 hours, fold change over baseline; for fold induction at 0.3 µM: inhibitor 0.3 μM; for fold induction at 1 µM: inhibitor 1 μM; for fold induction at 3 µM: inhibitor 3 μM
Cbl-b [5] = target: T1, Cbl-b; test: Cbl-b displacement assay (Cbl-b inhibition assay), TR-FRET probe displacement, Biological Example 1; assay type: binding
Procedure, shortened: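 N-terminally Avitagged, biotinylated truncated Cbl-b (0.5 nM "High" or 0.125 nM "Low", final) pre-incubated 1 h at room temperature with compound (1% DMSO) in HEPES pH 7.5 buffer. Then 150 nM BODIPY FL probe (~EC40) plus 2 nM streptavidin-terbium for 1 h; TR-FRET read at 520/620 nm.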

Cbl-b [6] = target: T1, Cbl-b; test: Cbl-b displacement assay (Cbl-b inhibition assay), Biological Example 8; assay type: binding; settings: 0.5 nM Cbl-b final concentration (High); Table 8-1; read-out: Cbl-b IC50 (High)
Protocol: as §1, §2, §3, §4

[7] = test system: primary human total T-cells; test: Primary human total T-cell activation: CD25 surface staining, Biological Example 13; assay type: cell-based; settings: 48 hours, fold change over baseline; for fold induction at 0.3 µM: inhibitor 0.3 μM; for fold induction at 0.3 µM / fold induction at 3 µM: Table 13-1; for fold induction at 1 µM: inhibitor 1 μM; for fold induction at 3 µM: inhibitor 3 μM
[8] = test system: primary human total T-cells; test: Primary human total T-cell activation: CD25 surface staining, Biological Example 9; assay type: cell-based; settings: 48 hours, fold change over baseline; for fold induction at 0.3 µM: inhibitor 0.3 μM; for fold induction at 0.3 µM / fold induction at 3 µM: Table 9-1; for fold induction at 1 µM: inhibitor 1 μM; for fold induction at 3 µM: inhibitor 3 μM
[9] = test system: primary human total T-cells; test: Primary human total T-cell activation: CD25 surface staining, Biological Example 2; assay type: cell-based; settings: 48 hours, fold change over baseline; for fold induction at 0.3 µM: inhibitor 0.3 μM; for fold induction at 1 µM: inhibitor 1 μM; for fold induction at 3 µM: inhibitor 3 μM
[10] = anti-CD3/anti-CD28 co-stimulation
[11] = anti-CD3/anti-CD28 co-stimulation, Table 13-1, read-out: IL-2 secretion CD3/CD28 1 μM
[12] = anti-CD3 alone, Table 13-1, read-out: IL-2 secretion CD3 1 μM
[13] = anti-CD3/anti-CD28 co-stimulation, Table 9-1, read-out: IL-2 secretion CD3/CD28 1 μM
[14] = anti-CD3 alone, Table 9-1, read-out: IL-2 secretion CD3 1 μM
[15] = anti-CD3/anti-CD28 co-stimulation, read-out: IL-2 secretion CD3/CD28 1 μM
[16] = anti-CD3 alone, read-out: IL-2 secretion CD3 1 μM
[17] = 0.5 nM Cbl-b final concentration (High), read-out: Cbl-b activity IC50 (High)
[18] = Cbl-b concentration (High or Low) not given, read-out: IC50 values in the Cbl-b inhibition assay of Biological Example 1
[19] = anti-CD3/anti-CD28 co-stimulation, Table 13-1, read-out: CD25 staining CD3/CD28 1 μM
[20] = anti-CD3 alone, Table 13-1, read-out: CD25 staining CD3 1 μM
[21] = anti-CD3/anti-CD28 co-stimulation, Table 9-1, read-out: CD25 staining CD3/CD28 1 μM
[22] = anti-CD3 alone, Table 9-1, read-out: CD25 staining CD3 1 μM
[23] = anti-CD3/anti-CD28 co-stimulation, read-out: CD25 staining CD3/CD28 1 μM
[24] = anti-CD3 alone, read-out: CD25 staining CD3 1 μM

T1 sequence (Q13191 36-427): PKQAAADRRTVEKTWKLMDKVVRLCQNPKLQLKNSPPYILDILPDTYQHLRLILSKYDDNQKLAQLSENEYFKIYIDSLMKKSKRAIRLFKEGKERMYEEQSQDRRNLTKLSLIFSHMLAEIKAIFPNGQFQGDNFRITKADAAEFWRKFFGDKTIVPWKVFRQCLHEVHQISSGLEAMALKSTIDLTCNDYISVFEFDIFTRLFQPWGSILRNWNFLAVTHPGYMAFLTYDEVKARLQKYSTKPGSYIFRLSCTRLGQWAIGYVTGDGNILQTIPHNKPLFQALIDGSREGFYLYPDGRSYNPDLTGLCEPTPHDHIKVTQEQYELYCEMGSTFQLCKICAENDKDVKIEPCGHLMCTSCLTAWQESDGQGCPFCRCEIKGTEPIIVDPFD

SMILES | fold induction at 0.3 µM [1, 10] | fold induction at 1 µM [1, 11] | fold induction at 1 µM [1, 12] | fold induction at 3 µM ([1]; anti-CD3 alone) | fold induction at 0.3 µM [2, 10] | fold induction at 1 µM [2, 13] | fold induction at 1 µM [2, 14] | fold induction at 3 µM ([2]; anti-CD3 alone) | IC50 (Cbl-b [3]) | fold induction at 0.3 µM [4, 10] | fold induction at 1 µM [4, 15] | fold induction at 1 µM [4, 16] | fold induction at 3 µM ([4]; anti-CD3 alone) | IC50 (Cbl-b [5]; [17]) | IC50 (Cbl-b [5]; [18]) | IC50 (Cbl-b [6]) | fold induction at 0.3 µM [7, 10] | fold induction at 1 µM [7, 19] | fold induction at 1 µM [7, 20] | fold induction at 3 µM ([7]; anti-CD3 alone) | other results
CCOc1cc(C2(Cc3nncn3C)COC2)cc(N2Cc3c(cc(CN4CCC(F)(F)[C@H](C)C4)cc3C(F)(F)F)C2=O)n1 [Compound 28, (R)-6-((4,4-difluoro-3-methylpiperidin-1-yl)methyl)-2-(6-ethoxy-4-(3-((4-methyl-4H-1,2,4-triazol-3-yl)methyl)oxetan-3-yl)pyridin-2-yl)-4-(trifluoromethyl)isoindolin-1-one] | 11 to 15 | 11 to 15 | 0.34 to 0.66 | 0.34 to 0.66 | 10 to 15 | 10 to 15 | 0.34 to 0.66 | 0.34 to 0.66 | 1 to 5 nM | > 15 | > 15 | 0.34 to 0.66 | 0.34 to 0.66 | 1 to 5 nM | 1 to 5 nM | 1 to 5 nM | 1.25 to 1.39 | < 1.24 | 1.05 to 1.14 | < 1.04 | fold induction at 0.3 µM [8, 10]: 1.25 to 1.39; fold induction at 1 µM [8, 21]: < 1.24; fold induction at 1 µM [8, 22]: 1.05 to 1.14; fold induction at 3 µM ([8]; anti-CD3 alone): < 1.04; fold induction at 0.3 µM [9, 10]: 1.25 to 1.39; fold induction at 1 µM [9, 23]: < 1.24; fold induction at 1 µM [9, 24]: 1.05 to 1.14; fold induction at 3 µM ([9]; anti-CD3 alone): < 1.04
C[C@@H]1CN(Cc2cc(C(=O)Nc3cccc(C4(Cc5nncn5C)COC4)c3)nc(C3CC3)c2)CCC1(F)F [Compound 32, 6-cyclopropyl-4-{[(3R)-4,4-difluoro-3-methylpiperidin-1-yl]methyl}-N-(3-{3-[(4-methyl-1,2,4-triazol-3-yl)methyl]oxetan-3-yl}phenyl)pyridine-2-carboxamide] | > 15 | > 15 | > 0.66 | > 0.66 | > 15 | > 15 | > 0.66 | > 0.66 | < 1 nM | > 15 | > 15 | 0.34 to 0.66 | 0.34 to 0.66 | < 1 nM | < 1 nM | < 1 nM | > 1.39 | > 1.39 | > 1.14 | > 1.14 | fold induction at 0.3 µM [8, 10]: > 1.39; fold induction at 1 µM [8, 21]: > 1.39; fold induction at 1 µM [8, 22]: > 1.14; fold induction at 3 µM ([8]; anti-CD3 alone): > 1.14; fold induction at 0.3 µM [9, 10]: < 1.24; fold induction at 1 µM [9, 23]: < 1.24; fold induction at 1 µM [9, 24]: 1.05 to 1.14; fold induction at 3 µM ([9]; anti-CD3 alone): 1.05 to 1.14
